pKi: −log10 of the molar value.
Biological target: T1, Ornithine decarboxylase (ODC) (Rattus norvegicus, UniProt P09057)
T1 construct: is prepared from the livers of rats which have been injected with thioacetamide; from tissue; host or cells: rat liver (thioacetamide-induced)
T1 sequence (P09057 1-461): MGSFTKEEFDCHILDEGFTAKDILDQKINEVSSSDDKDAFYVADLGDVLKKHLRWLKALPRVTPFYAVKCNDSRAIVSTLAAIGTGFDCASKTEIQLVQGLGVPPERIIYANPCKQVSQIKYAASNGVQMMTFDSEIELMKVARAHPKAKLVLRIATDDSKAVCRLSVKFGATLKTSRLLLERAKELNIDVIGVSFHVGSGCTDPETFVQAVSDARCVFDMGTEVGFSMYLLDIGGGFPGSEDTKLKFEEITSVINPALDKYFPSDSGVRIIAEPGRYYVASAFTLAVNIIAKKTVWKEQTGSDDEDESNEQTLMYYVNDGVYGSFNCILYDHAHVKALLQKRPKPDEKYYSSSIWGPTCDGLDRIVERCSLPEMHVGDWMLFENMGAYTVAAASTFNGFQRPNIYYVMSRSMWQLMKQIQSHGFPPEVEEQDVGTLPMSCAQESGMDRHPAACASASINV
Assay: In vitro time-dependent inhibition of ornithine decarboxylase (14CO2 release from DL-[1-14C]ornithine; Kitz and Wilson analysis)
Format: biochemical, rats
Settings: calculated by method of Kitz and Wilson; for pKi: apparent dissociation constant, ODC from livers of thioacetamide-treated rats, incubated at 37°; for ODC τ50: half-life at infinite concentration of inhibitor, rat liver ODC, 37°
Method: The stock solution of ODC is composed of proteins (16 mg/mL), sodium phosphate buffer (30 mM, pH 7.1), dithiothreitol (5 mM) and pyridoxal phosphate (0.1 mM). The specific activity of this stock solution is 0.12 nmol of CO2/min per mg of protein. For a typical experiment 320 µl of this stock solution is mixed at time 0 with 80 µl of a solution of the inhibitor in water and incubated at 37°. At different times 50 pl aliquots are transferred into a 1 mL assay medium containing sodium phosphate (30 mM, pH 7.1), dithiothreitol (5 mM), pyridoxal phosphate (0.1 mM), L-ornithine (0.081 pmol), and DL-[1-^14C] ornithine (0.043 pmol, 58 Ci/mol, Amersham) in a closed vessel in which a filter paper moistered with 50 µl hyamine hydroxide (1 M) is fitted. The reaction is allowed to proceed for 60 min at 37°C and then terminated by addition of 0.5 ml of 40% trichloroacetic acid. After an additional 30 min, the CO2 absorbed on the filter paper is counted in a standard scintillation cocktail.

Row | pKi | SMILES | ODC τ50
1 | 5.32 | NCC(=O)CC(N)(CF)C(=O)O (stereo not shown) [A, 2-fluoromethyl-2,5-diamino-4-oxo-pentanoic acid] | 3.1 min
2 | – | C=C(CN)CC(N)CF (stereo not shown) [B, 1-fluoro-2,5-diamino-4-methylene-pentane] | 2.6 min
3 | – | NCC(=O)CC(N)CF (stereo not shown) [C, 1-fluoro-2,5-diamino-4-oxo-pentane] | 1.6 min
4 | 4.28 | C=C(CN)CC(N)(CF)C(=O)O (stereo not shown) [D, 2-fluoromethyl-2,5-diamino-4-methylene-pentanoic acid] | 3.6 min
5 | – | C=C(CN)CC(N)C(F)F (stereo not shown) [E, 1,1-difluoro-2,5-diamino-4-methylene-pentane] | 2.2 min
